Where two headings read alike, the source gives them in different places.
Legend:
[1] = Ex vivo biodistribution in mice with MM1S tumor xenografts; details: NSG, mouse; for tissue uptake at 1 h / tissue to tissue ratio at 1 h: 60 min p.i.; for tissue uptake at 1.5 h: 90 min p.i.; for tissue uptake at 2 h: 120 min p.i.; for tissue uptake at 5 min: 5 min p.i.; for tissue uptake at 0.5 h: 30 min p.i.
Experimental: (§1) Animal studies were performed under Johns Hopkins University Animal Care and Use Committee (ACUC‐approved protocol (Principal investigator: Sridhar Nimmagadda, Ph.D. and Protocol number M021M175). Male and female NSG mice (5‐6 weeks old) were used to establish xenografts by administering 3 million cells (50% Corning Matrigel) subcutaneously to form various tumor models within 3–4 weeks. Imaging or biodistribution studies (n = 3–5) were conducted on mice with tumor volumes of 100–200 mm^3. Disseminated tumor models were developed by injecting 4–5 million cells in saline intravenously for MOLP8 and MM1S‐Luc models (n = 4–5). Luciferase expressing MM1S cell line (MM1S‐Luc) was used to monitor cancer cell dissemination in the body. Tumor establishment was confirmed by injecting D‐Luciferin intraperitoneally (150 mg kg^−1) and imaged mice after 10 min in IVIS bioluminescence imaging system. Bone marrow tumors were ready for imaging after 25–30 d of implantation.
(§2) Mice with 100–200 mm^3 tumor volume were used for ex vivo biodistribution studies. For radiotracer pharmacokinetics studies, mice with MOLP8 tumor xenografts received ≈80 µCi (2.96 MBq) [^68Ga]Ga‐AJ206 and were sacrificed at pre‐determined time points (5, 30, 60 and 120 min). Similarly, for dosimetry study, mice with MM1S tumor xenografts received ≈80 µCi (2.96 MBq) of [^68Ga]Ga‐AJ206 and were sacrificed at pre‐determined time points (5, 30, 60, 90 and 120 min). All other mice were injected with ≈50µCi (1.85 MBq) [^68Ga]Ga‐AJ206 and were sacrificed at 60 min. The selected tissues were collected, weighed, counted, and their %ID g^−1 values calculated for biodistribution analysis. The tissues included blood, muscle, tumor, thymus, heart, lung, liver, pancreas, stomach, small intestine, large intestine, spleen, adrenals, kidney, bladder, femur, and brain.

[2] = Ex vivo biodistribution in mice with RPMI tumor xenografts; details: both sexes, NSG, mouse, 60 min p.i., RPMI xenograft mice; for tissue uptake at 1 h: 50 µCi; for tissue to tissue ratio at 1 h: 50 uCi, total radioactivity
Experimental: as §1, §2

[3] = both sexes, muscle, 80 µCi, MM1S xenograft mice, read-out: uptake in muscle
[4] = both sexes, pancreas, 80 µCi, total radioactivity, MM1S xenograft mice, read-out: uptake in pancreas
[5] = both sexes, small intestine (with contents), 80 µCi, MM1S xenograft mice, read-out: uptake in small intestine (with contents)
[6] = both sexes, spleen, 80 µCi, total radioactivity, MM1S xenograft mice, read-out: uptake in spleen
[7] = both sexes, stomach (with contents), 80 µCi, MM1S xenograft mice, read-out: uptake in stomach (with contents)
[8] = both sexes, thymus, 80 µCi, total radioactivity, MM1S xenograft mice, read-out: uptake in thymus
[9] = both sexes, tumor, 80 µCi, total radioactivity, MM1S xenograft mice, read-out: uptake in tumor
[10] = female, ovary, 80 µCi, MM1S xenograft mice, read-out: uptake in ovary

With `CC[C@H](C)[C@@H]1NC(=O)[C@@H]2CCCN2C(=O)[C@H](Cc2ccccc2)NC(=O)[C@H](CC(=O)O)NC(=O)[C@H](C)NC(=O)[C@@H]2CSCc3cc(cc(c3)CSC[C@H](NC(=O)[C@H](C)NC(=O)CCOCCOCCOCCNC(=O)CN3CCN(CC(=O)O)CCN(CC(=O)O)CC3)C(=O)N[C@@H](C(C)C)C(=O)N3CCC[C@H]3C(=O)N2)CSC[C@@H](C(N)=O)NC(=O)[C@H](Cc2ccc(O)cc2)NC(=O)[C@H](Cc2c[nH]c3ccccc23)NC1=O` [[^68Ga]Ga‐AJ206, metal not drawn] the tissue uptake at 1 h [1, 3] was 0.13 ± 0.02 %ID/g, the tissue uptake at 1.5 h [1, 3] was 0.18 ± 0.04 %ID/g and the tissue uptake at 2 h ([1]; both sexes, muscle, 80 µCi, total radioactivity, MM1S xenograft mice, read-out: uptake in muscle) was 0.09 ± 0.02 %ID/g. The tissue uptake at 1 h ([1]; both sexes, pancreas, 2 mg/kg, MM1S xenograft mice with blocking dose (2 mg kg^−1 AJ206), read-out: uptake in pancreas) was 0.64 ± 0.39 %ID/g, the tissue uptake at 5 min [1, 4] was 3.55 ± 0.34 %ID/g and the tissue uptake at 0.5 h [1, 4] was 0.79 ± 0.14 %ID/g. It also gave a tissue uptake at 1 h [1, 4] of 0.19 ± 0.03 %ID/g, a tissue uptake at 1.5 h [1, 4] of 0.26 ± 0.06 %ID/g and a tissue uptake at 2 h [1, 4] of 0.17 ± 0.05 %ID/g. It also gave a tissue uptake at 5 min [1, 5] of 5 ± 0.7 %ID/g, a tissue uptake at 0.5 h [1, 5] of 0.95 ± 0.1 %ID/g and a tissue uptake at 1 h [1, 5] of 0.2 ± 0.1 %ID/g. It also gave a tissue uptake at 1.5 h [1, 5] of 0.41 ± 0.08 %ID/g, a tissue uptake at 2 h [1, 5] of 0.52 ± 0.21 %ID/g and a tissue uptake at 1 h ([1]; both sexes, small intestine, 2 mg/kg, MM1S xenograft mice with blocking dose (2 mg kg^−1 AJ206), read-out: uptake in small intestine) of 0.87 ± 0.5 %ID/g. It also gave a tissue uptake at 1 h ([1]; both sexes, spleen, 2 mg/kg, MM1S xenograft mice with blocking dose (2 mg kg^−1 AJ206), read-out: uptake in spleen) of 0.9 ± 0.45 %ID/g, a tissue uptake at 5 min [1, 6] of 6.41 ± 1.3 %ID/g and a tissue uptake at 0.5 h [1, 6] of 1.21 ± 0.15 %ID/g. It also gave a tissue uptake at 1 h [1, 6] of 0.41 ± 0.05 %ID/g, a tissue uptake at 1.5 h [1, 6] of 0.43 ± 0.07 %ID/g and a tissue uptake at 2 h [1, 6] of 0.28 ± 0.05 %ID/g. It also gave a tissue uptake at 5 min [1, 7] of 1.65 ± 0.19 %ID/g, a tissue uptake at 0.5 h [1, 7] of 0.54 ± 0.19 %ID/g and a tissue uptake at 1 h [1, 7] of 0.32 ± 0.21 %ID/g. The tissue uptake at 1.5 h [1, 7] was 0.82 ± 0.36 %ID/g, the tissue uptake at 2 h [1, 7] was 0.47 ± 0.3 %ID/g and the tissue uptake at 1 h ([1]; both sexes, stomach, 2 mg/kg, MM1S xenograft mice with blocking dose (2 mg kg^−1 AJ206), read-out: uptake in stomach) was 1.01 ± 0.56 %ID/g. The tissue uptake at 5 min [1, 8] was 16.5 ± 5.34 %ID/g, the tissue uptake at 0.5 h [1, 8] was 2.67 ± 0.83 %ID/g and the tissue uptake at 1 h [1, 8] was 0.69 ± 0.19 %ID/g. For the same molecule, the tissue uptake at 1.5 h [1, 8] was 0.84 ± 0.18 %ID/g, the tissue uptake at 2 h [1, 8] was 0.33 ± 0.1 %ID/g and the tissue uptake at 1 h ([1]; both sexes, tumor, 2 mg/kg, MM1S xenograft mice with blocking dose (2 mg kg^−1 AJ206), read-out: uptake in tumor) was 1.37 ± 0.22 %ID/g. For the same molecule, the tissue uptake at 5 min [1, 9] was 3.09 ± 0.16 %ID/g, the tissue uptake at 0.5 h [1, 9] was 4.15 ± 0.53 %ID/g and the tissue uptake at 1.5 h [1, 9] was 1.6 ± 0.46 %ID/g. For the same molecule, the tissue uptake at 2 h [1, 9] was 1.3 ± 0.4 %ID/g, the tissue uptake at 1 h ([1]; both sexes, tumor, MM1S xenograft mice, read-out: uptake in tumor) was 2.48 ± 0.17 %ID/g and the tissue to tissue ratio at 1 h ([1]; both sexes, tumor/blood, total radioactivity, MM1S xenograft mice with blocking dose (2 mg kg^−1 AJ206), read-out: Tumor/Blood ratio) was 1.08 ± 0.4. It also gave a tissue to tissue ratio at 1 h ([1]; both sexes, tumor/blood, total radioactivity, MM1S xenograft mice, read-out: Tumor/Blood ratio) of 2.9 ± 0.65, a tissue to tissue ratio at 1 h ([1]; both sexes, tumor/muscle, total radioactivity, MM1S xenograft mice with blocking dose (2 mg kg^−1 AJ206), read-out: Tumor/Muscle ratio) of 8.31 ± 2.41 and a tissue to tissue ratio at 1 h ([1]; both sexes, tumor/muscle, total radioactivity, MM1S xenograft mice, read-out: Tumor/Muscle ratio) of 21.2 ± 3.4. It also gave a tissue uptake at 5 min [1, 10] of 4.11 ± 1.4 %ID/g, a tissue uptake at 0.5 h [1, 10] of 1.48 ± 0.32 %ID/g and a tissue uptake at 1 h [1, 10] of 0.2 ± 0.06 %ID/g. The tissue uptake at 1.5 h [1, 10] was 0.32 ± 0.14 %ID/g, the tissue uptake at 2 h [1, 10] was 0.45 ± 0.15 %ID/g and the tissue uptake at 1 h ([2]; blood, read-out: uptake in blood) was 0.98 ± 0.48 %ID/g. The tissue uptake at 1 h ([2]; heart, read-out: uptake in heart) was 0.63 ± 0.21 %ID/g, the tissue uptake at 1 h ([2]; kidney, read-out: uptake in kidney) was 17.8 ± 3.48 %ID/g and the tissue uptake at 1 h ([2]; liver, read-out: uptake in liver) was 1.27 ± 0.3 %ID/g. For the same molecule, the tissue uptake at 1 h ([2]; lung, read-out: uptake in lung) was 1 ± 0.26 %ID/g, the tissue uptake at 1 h ([2]; muscle, read-out: uptake in muscle) was 0.49 ± 0.07 %ID/g and the tissue uptake at 1 h ([2]; pancreas, read-out: uptake in pancreas) was 0.48 ± 0.15 %ID/g. The tissue uptake at 1 h ([2]; small intestine, read-out: uptake in small intestine) was 0.59 ± 0.25 %ID/g, the tissue uptake at 1 h ([2]; spleen, read-out: uptake in spleen) was 1.09 ± 0.15 %ID/g and the tissue uptake at 1 h ([2]; stomach, read-out: uptake in stomach) was 0.45 ± 0.07 %ID/g. The tissue uptake at 1 h ([2]; tumor, read-out: uptake in tumor) was 1.78 ± 0.36 %ID/g, the tissue to tissue ratio at 1 h ([2]; tumor/blood, read-out: Tumor/Blood ratio) was 2.69 ± 0.65 and the tissue to tissue ratio at 1 h ([2]; tumor/muscle, read-out: Tumor/Muscle ratio) was 3.72 ± 0.73.

— PMC11040352, “CD38‐Specific Gallium‐68 Labeled Peptide Radiotracer Enables Pharmacodynamic Monitoring in Multiple Myeloma with PET” (Advanced Science, 2024)
